We go through 18 compounds from ChEMBL document CHEMBL3588847, “1,5-Diarylpyrazole and vanillin hybrids: Synthesis, biological activity and DFT studies” (Eur J Med Chem, 2015).

Calls of active or inactive are those of the source. No cut-off for these calls is given here.

The subject of data set [1] is Rattus norvegicus. The data set is described as follows: Hypoglycemic effect in Wistar rat model of streptozotocin-induced type-2 diabetes mellitus assessed as reduction in blood glucose level at 5 mg/kg, ig after 7 hrs. The data set is classed as functional, organism-based.
The nature of data set [2]: Antioxidant activity assessed as DPPH radical scavenging activity. Format: physicochemical. Background: DPPH is a stable violet radical that fades when it is reduced.
Data set [3] can be described thus: Antioxidant activity assessed as DPPH radical scavenging activity at 20 mg/ml. Format: physicochemical.
Data set [4] in a line: Antioxidant activity assessed as AAPH radical scavenging activity by measuring Trolox equivalents after 90 mins by fluorescein probe based ORAC assay. The data set is classed as physicochemical. Particulars: 1.5 h.
For data set [5], the system named is Rattus norvegicus. In words: Hypoglycemic effect in Wistar rat model of streptozotocin-induced type-2 diabetes mellitus assessed as reduction in blood glucose level at 50 mg/kg, ig after 7 hrs. Format: functional. Particulars: po.
Data set [6] is described as follows: Antioxidant activity assessed as DPPH radical scavenging activity at […]. Format: physicochemical.
Data set [7] is described as follows: Antioxidant activity assessed as DPPH radical scavenging activity at 20 µg/ml. The data set is classed as physicochemical.

As for `COc1ccc(Cl)cc1C(=O)NCCc1ccc(S(=O)(=O)NC(=O)NC2CCCCC2)cc1`, in the data set with Rattus norvegicus [1], the outcome was Active.
Turning to `O=C1O[C@H]([C@@H](O)CO)C(O)=C1O` [ASCORBIC ACID], the EC50 in data set [2] is 2.07 mM.
Turning to `Cc1c(C(=O)O)nn(-c2ccc(Cl)cc2Cl)c1-c1ccc(Cl)cc1`, the “inhibition (INH)” value in data set [3] was 17%.
As for `COc1cc(C(=O)O)ccc1O` [VANILLIC ACID], the EC50 in data set [2] came out at 65.8 mM. In data set [4], the Activity was 2979 g⁻¹.
Turning to `COc1cc(/C=N/NC(=O)c2nn(-c3ccc(Cl)cc3Cl)c(-c3ccc(Cl)cc3)c2C)ccc1O`, the inhibition in vivo at 50 mg/kg in the data set on Rattus norvegicus [5] was 64.9%. For the same compound, in data set [2], the EC50 was 3.55 mM. In data set [4], the Activity came out at 634 g⁻¹.
On to `COc1cc(/C=N/NC(=O)c2nn(-c3ccnc4cc(Cl)ccc34)c(-c3ccc(F)cc3)c2C)ccc1O`, for which, in data set [2], the EC50 worked out at 6.45 mM.
Regarding `COc1cc(/C=N/NC(=O)c2nn(-c3ccc(C(F)(F)F)cc3)c(-c3ccc(Cl)cc3)c2C)ccc1O`, in data set [2], the EC50 worked out at 2.34 mM. The Activity in data set [4] was found to be 867 g⁻¹.
`COc1cc(C=O)ccc1O` [VANILLIN]: the “inhibition (INH)” value in data set [6] is recorded as 75%; in data set [7], 7%.
In the case of `COc1cc(/C=N/NC(=O)c2nn(-c3ccc(F)cc3F)c(-c3ccc(F)cc3)c2C)ccc1O`, in data set [2], the half-maximal effective concentration (EC50) turned out to be 3.54 mM. Also, the Activity in data set [4] worked out at 891 g⁻¹.
As to `COc1cc(/C=N/NC(=O)c2nn(-c3ccc(C(F)(F)F)cc3)c(-c3ccc(Br)cc3)c2C)ccc1O`, in data set [2], the EC50 came out at 2.91 mM.
Take `COc1cc(/C=N/NC(=O)c2nn(-c3ccc(Cl)c(Cl)c3)c(-c3ccc(Cl)cc3)c2C)ccc1O`: in the data set on Rattus norvegicus [5], the inhibition in vivo at 50 mg/kg amounted to 33.3%. Further, the EC50 in data set [2] worked out at 2.6 mM. Also, in data set [4], the Activity was found to be 432 g⁻¹.
As to `COc1cc(/C=N/NC(=O)c2nn(-c3ccc(F)c(Cl)c3)c(-c3ccc(F)cc3)c2C)ccc1O`, in data set [2], the EC50 stood at 6.92 mM. Further, the Activity in data set [4] turned out to be 525 g⁻¹.
In the same order, the values of `COc1cc(/C=N/NC(=O)c2nn(-c3ccc(F)cc3F)c(-c3ccc(C(F)(F)F)cc3)c2C)ccc1O` are 2.9 mM and 993 g⁻¹.
As for `COc1cc(/C=N/NC(=O)c2nn(-c3ccc(Cl)cc3Cl)c(-c3ccc(C(F)(F)F)cc3)c2C)ccc1O`, in the data set with Rattus norvegicus [5], the inhibition in vivo at 50 mg/kg stood at 35.3%. The EC50 in data set [2] was 4.24 mM. Also, the Activity in data set [4] was 401 g⁻¹.
Turning to `COc1cc(/C=N/NC(=O)c2nn(-c3ccc(F)c(Cl)c3)c(-c3ccc(Cl)cc3)c2C)ccc1O`, the EC50 in data set [2] is 3.56 mM. The Activity in data set [4] came to 882 g⁻¹.
`COc1cc(/C=N/NC(=O)c2nn(-c3ccnc4cc(Cl)ccc34)c(-c3ccc(Cl)cc3)c2C)ccc1O`: the half-maximal effective concentration (EC50) in data set [2] came out at 4.59 mM.
For the compound `COc1cc(/C=N/NC(=O)c2nn(-c3ccc(Cl)cc3Cl)c(-c3ccccc3)c2C)ccc1O`, the inhibition in vivo at 50 mg/kg in the data set with Rattus norvegicus [5] was found to be 26.6%. Also, the EC50 in data set [2] is 2.99 mM. Further, the Activity in data set [4] stood at 1076 g⁻¹.
As to `COc1cc(/C=N/NC(=O)c2nn(-c3ccccc3)c(-c3ccccc3)c2C)ccc1O`, in data set [2], the EC50 was found to be 2.46 mM. Further, the Activity in data set [4] stood at 611 g⁻¹.

For orientation: EC50 means the concentration that produces a half-maximal response. As usually defined, the inhibition in vivo is the change of the read-out against control, counted positive when it falls.
